Source: patent publication US20230086702A1, “SUBSTITUTED 2-AMINO-PYRAZOLYL-[1,2,4]TRIAZOLO[1,5A]PYRIDINE DERIVATIVES AND USE THEREOF” (The Johns Hopkins University, priority 2019, published 2023)

How the values were obtained:
DLK = target: T1, DLK (Homo sapiens, UniProt Q12852); test: DLK biochemical assay (TR-FRET, MKK7 phosphorylation)
T1 construct: 10 nM DLK, catalytic domain, Carna Biosiences; purchased Carna Biosciences ('Carna Biosiences' [sic])
T1 sequence (Q12852 125-366 limits assumed): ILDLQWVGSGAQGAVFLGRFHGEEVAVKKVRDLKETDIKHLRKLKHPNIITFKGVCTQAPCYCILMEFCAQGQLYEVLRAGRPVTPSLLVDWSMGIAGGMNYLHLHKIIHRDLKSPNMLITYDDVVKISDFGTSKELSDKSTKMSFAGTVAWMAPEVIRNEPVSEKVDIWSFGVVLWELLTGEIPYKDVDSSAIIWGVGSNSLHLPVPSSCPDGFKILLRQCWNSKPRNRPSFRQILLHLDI
How it was run: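 TR-FRET read-out (665/Eu ratio) of MKK7 T275/S277 phosphorylation, with inhibition lowering the signal. Final conditions: 10 nM DLK catalytic domain, 15 nM MKK7, 60 μM ATP, 90 min at RT. Detection incubation 16 h at 37° C in 1536-well or 4° C in 384-well format.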

LZK = target: T2, LZK (Homo sapiens, UniProt O43283); test: LZK biochemical assay (TR-FRET, MKK7 phosphorylation)
T2 construct: 10 nM LZK, catalytic domain, Carna Biosiences in assay buffer; purchased Carna Biosciences ('Carna Biosiences' [sic])
T2 sequence (O43283 168-409 limits assumed): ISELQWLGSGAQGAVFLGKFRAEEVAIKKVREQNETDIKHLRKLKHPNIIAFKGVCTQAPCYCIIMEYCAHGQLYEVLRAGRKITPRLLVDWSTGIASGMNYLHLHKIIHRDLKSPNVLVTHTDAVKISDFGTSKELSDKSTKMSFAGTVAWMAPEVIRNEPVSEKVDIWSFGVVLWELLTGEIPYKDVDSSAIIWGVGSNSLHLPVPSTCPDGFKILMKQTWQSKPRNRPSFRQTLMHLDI
How it was run: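 Read-out is HTRF: Eu-labelled anti-phospho-MKK7 (T275/S277) and XL665 anti-His, incubated 16 h at 32 °C, with a drop in signal marking inhibition. Reaction beforehand: 10 nM LZK kinase domain, 15 nM His-MKK7, 15 µM ATP (final) for 90 min at room temperature, pH 7.5.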

Compound | IC50 (DLK) [nM] | IC50 (LZK) [nM]
CCC(c1ccc(N2CCOCC2)cc1)n1cc(-c2cc(-c3cnn(CC(F)(F)F)c3)c3nc(N)nn3c2)cn1 (single isomer, unassigned) [II-103, 6-(1-{1-[4-(Morpholin-4-yl)phenyl]propyl}-1H-pyrazol-4-yl)-8-[1-(2,2,2-trifluoroethyl)-1H-pyrazol-4-yl][1,2,4]triazolo[1,5-a]pyridin-2-amine] | 64 | 160
CCC(c1ccc(C(F)(F)F)nc1)n1cc(-c2cc(-c3cnn(CC(F)F)c3)c3nc(N)nn3c2)cn1 (single isomer, unassigned) [II-109, 8-[1-(2,2-Difluoroethyl)-1H-pyrazol-4-yl]-6-(1-{1-[6-(trifluoromethyl)pyridin-3-yl]propyl}-1H-pyrazol-4-yl)[1,2,4]triazolo[1,5-a]pyridin-2-amine] | 16 | 57
CC(C)C(c1ccc(C(F)(F)F)nc1)n1cc(-c2cc(-c3ccc(C4(O)CCC4)nc3)n3nc(N)nc3c2)cn1 (racemic) [II-80, 1-{5-[2-Amino-7-(1-{2-methyl-1-[6-(trifluoromethyl)pyridin-3-yl]propyl}-1H-pyrazol-4-yl)[1,2,4]triazolo[1,5-a]pyridin-5-yl]pyridin-2-yl}cyclobutan-1-ol] | 21 | 17
Cc1cc(-c2cc(-c3cnn(Cc4ccccc4)c3)cc3nc(N)nn23)cnn1 [II-88, 7-(1-Benzyl-1H-pyrazol-4-yl)-5-(6-methylpyridazin-4-yl)[1,2,4]triazolo[1,5-a]pyridin-2-amine] | 480 | 620
CC[C@@H](c1ccccc1)n1cc(-c2cc(-c3cnn(C4CC4)c3)c3nc(N)nn3c2)cn1 [II-92, 8-(1-Cyclopropyl-1H-pyrazol-4-yl)-6-{1-[(1S)-1-phenylpropyl]-1H-pyrazol-4-yl}[1,2,4]triazolo[1,5-a]pyridin-2-amine] | 6.7 | 150
CCC(c1ccc(C(F)(F)F)nc1)n1cc(-c2cc(-c3cccc(C(C)(C)O)c3)c3nc(N)nn3c2)cn1 (racemic) [II-7, 2-{3-[2-Amino-6-(1-{1-[6-(trifluoromethyl)pyridin-3-yl]propyl}-1H-pyrazol-4-yl)[1,2,4]triazolo[1,5-a]pyridin-8-yl]phenyl}propan-2-ol] | 0.8 | 3.3
CC(C)C(c1ccc(C(F)F)nc1)n1cc(-c2cc(-c3ccc(C4CC4)nc3)n3nc(N)nc3c2)cn1 (single isomer, unassigned) [II-53, 5-(6-Cyclopropylpyridin-3-yl)-7-(1-{1-[6-(difluoromethyl)pyridin-3-yl]-2-methylpropyl}-1H-pyrazol-4-yl)[1,2,4]triazolo[1,5-a]pyridin-2-amine] | 33 | 48
CCC(c1ccc(C(F)(F)F)nc1)n1cc(-c2cc(-c3cnn(CC(F)F)c3)c3nc(N)nn3c2)cn1 (racemic) [II-108, 8-[1-(2,2-Difluoroethyl)-1H-pyrazol-4-yl]-6-(1-{1-[6-(trifluoromethyl)pyridin-3-yl]propyl}-1H-pyrazol-4-yl)[1,2,4]triazolo[1,5-a]pyridin-2-amine] | 6.3 | 37
CCC(c1ccc(C(F)(F)F)nc1)n1cc(-c2cc(-c3ccc(C4CC4)nc3)n3nc(N)nc3c2)cn1 (single isomer, unassigned) [II-56, 5-(6-Cyclopropylpyridin-3-yl)-7-(1-{1-[6-(trifluoromethyl)pyridin-3-yl]propyl}-1H-pyrazol-4-yl)[1,2,4]triazolo[1,5-a]pyridin-2-amine] | 37 | 56
Nc1nc2cc(-c3cnn(C(c4ccc(C(F)(F)F)nc4)C4CCOCC4)c3)cc(-c3ccnc(C(F)(F)F)c3)n2n1 (single isomer, unassigned) [II-35, 7-(1-{Tetrahydro-2H-pyran-4-yl[6-(trifluoromethyl)pyridin-3-yl]methyl}-1H-pyrazol-4-yl)-5-[2-(trifluoromethyl)pyridin-4-yl][1,2,4]triazolo[1,5-a]pyridin-2-amine] | 63 | 44
CC(C)C(c1ccc(C(F)(F)F)nc1)n1cc(-c2cc(-c3ccc(C(F)F)nc3)n3nc(N)nc3c2)cn1 (single isomer, unassigned) [II-72, 5-[6-(Difluoromethyl)pyridin-3-yl]-7-(1-{2-methyl-1-[6-(trifluoromethyl)pyridin-3-yl]propyl}-1H-pyrazol-4-yl)[1,2,4]triazolo[1,5-a]pyridin-2-amine] | 16 | 17
CC[C@@H](c1ccccc1)n1cc(-c2cc(-c3cnn(C(C)C(F)(F)F)c3)c3nc(N)nn3c2)cn1 (single isomer, unassigned) [II-96] | 17 | 60
CCc1cnc(-c2cc(-c3cnn(Cc4ccccc4)c3)cc3nc(N)nn23)cn1 [II-87, 7-(1-Benzyl-1H-pyrazol-4-yl)-5-(5-ethylpyrazin-2-yl)[1,2,4]triazolo[1,5-a]pyridin-2-amine] | 42 | 530
CC(C)C(c1ccc(C(F)F)nc1)n1cc(-c2cc(-c3ccc(C4CC4)nc3)n3nc(N)nc3c2)cn1 (racemic) [II-52, 5-(6-Cyclopropylpyridin-3-yl)-7-(1-{1-[6-(difluoromethyl)pyridin-3-yl]-2-methylpropyl}-1H-pyrazol-4-yl)[1,2,4]triazolo[1,5-a]pyridin-2-amine] | 6 | 19
Nc1nc2cc(-c3cnn(C(c4ccc(C(F)(F)F)nc4)C4CCOCC4)c3)cc(-c3ccnc(C(F)(F)F)c3)n2n1 (single isomer, unassigned) [II-36, 7-(1-{Tetrahydro-2H-pyran-4-yl[6-(trifluoromethyl)pyridin-3-yl]methyl}-1H-pyrazol-4-yl)-5-[2-(trifluoromethyl)pyridin-4-yl][1,2,4]triazolo[1,5-a]pyridin-2-amine] | 6.3 | 7.9
CC[C@@H](c1ccccc1)n1cc(-c2cc(-c3cnn(CC(F)(F)F)c3)c3nc(N)nn3c2)cn1 [II-93, 6-{1-[(1S)-1-Phenylpropyl]-1H-pyrazol-4-yl}-8-[1-(2,2,2-trifluoroethyl)-1H-pyrazol-4-yl][1,2,4]triazolo[1,5-a]pyridin-2-amine] | 19 | 68

Continued, values first:

IC50 (DLK) [nM] | IC50 (LZK) [nM] | Compound
7.1 | 73 | Nc1nc2cc(-c3cnn(Cc4ccccc4)c3)cc(-c3cnn(CC4CC4(F)F)c3)n2n1 (centres unmarked) [II-124]
2.2 | 11 | Nc1nc2c(-c3ccn(CC(F)F)c(=O)c3)cc(-c3cnn(C(c4ccc(C(F)(F)F)nc4)C4CCOCC4)c3)cn2n1 (centres unmarked) [II-172]
53 | 150 | N#CCC(n1cc(-c2cc(-c3cnn(Cc4ccccc4)c3)cc3nc(N)nn23)cn1)C(F)(F)F (centres unmarked) [II-123]
23 | 59 | CCC(c1ccc(C(F)(F)F)nc1)n1cc(-c2cc(-c3cnn(CC(F)(F)F)c3)c3nc(N)nn3c2)cn1 (single isomer, unassigned) [II-113, 8-[1-(2,2,2-trifluoroethyl)-1H-pyrazol-4-yl]-6-(1-{1-[6-(trifluoromethyl)pyridin-3-yl]propyl}-1H-pyrazol-4-yl)[1,2,4]triazolo[1,5-a]pyridin-2-amine]
1.5 | 5.9 | Nc1nc2c(-c3ccc(=O)n(CC(F)(F)F)c3)cc(-c3cnn(C(c4ccc(C(F)(F)F)nc4)C4CCOCC4)c3)cn2n1 (centres unmarked) [II-160]
67 | 138 | CCC(c1ccc(OC(F)(F)F)nc1)n1cc(-c2cc(-c3cnn(CC(F)(F)F)c3)n3nc(N)nc3c2)cn1 (single isomer, unassigned) [II-115, 5-[1-(2,2,2-Trifluoroethyl)-1H-pyrazol-4-yl]-7-(1-{1-[6-(trifluoromethoxy)pyridin-3-yl]propyl}-1H-pyrazol-4-yl)[1,2,4]triazolo[1,5-a]pyridin-2-amine]
15 | 12 | Nc1nc2cc(-c3cnn(C(c4ccc(C(F)(F)F)nc4)C4CCOCC4)c3)cc(-c3ccc(=O)n(CC(F)(F)F)c3)n2n1 (single isomer, unassigned) [II-193, 5-[2-Amino-7-(1-{tetrahydro-2H-pyran-4-yl[6-(trifluoromethyl)pyridin-3-yl]methyl}-1H-pyrazol-4-yl)[1,2,4]triazolo[1,5-a]pyridin-5-yl]-1-(2,2,2-trifluoroethyl)pyridin-2(1H)-one]
19 | 70 | Nc1nc2cc(-c3cnn(Cc4ccnc(OC(F)(F)F)c4)c3)cc(-c3cnn(CC(F)(F)F)c3)n2n1 [II-135, 5-[1-(2,2,2-Trifluoroethyl)-1H-pyrazol-4-yl]-7-(1-{[2-(trifluoromethoxy)pyridin-4-yl]methyl}-1H-pyrazol-4-yl)[1,2,4]triazolo[1,5-a]pyridin-2-amine]
20 | 60 | CCC(c1ccc(C(F)(F)F)nc1)n1cc(-c2cc(-c3ccn(C)c(=O)c3)c3nc(N)nn3c2)cn1 (centres unmarked) [II-169]
